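Briefly, cells in 96-well plates were exposed to five compound concentrations for 48 h, and endpoints were estimated by linear interpolation. GI50: concentration for 50% inhibition of growth.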 Activity calls are given as the source filed them. Cut-off read from the data, not from the text of the source: active = GI50 up to about 1.1 µM and inactive = higher.
What was measured:
Assay in all cases: inhibition of tumour cell growth, NCI panel, 48 h
RXF 393 = system: RXF 393
786-0 = system: 786-0
KM12 = system: KM12
DMS-273 = system: DMS-273
SF-295 = system: SF-295
SN12C = system: SN12C
SK-MEL-28 = system: SK-MEL-28
RPMI-8226 = system: RPMI-8226
LOX IMVI = system: LOX IMVI
NCI-H226 = system: NCI-H226
HCT-116 = system: HCT-116
HOP-92 = system: HOP-92
SR = system: SR
HL-60 = system: HL-60
K562 = system: K562
UACC-257 = system: UACC-257
M19-MEL = system: M19-MEL
CAKI-1 = system: CAKI-1
Malme-3M = system: Malme-3M
UACC-62 = system: UACC-62
NCI-H522 = system: NCI-H522
CCRF-CEM = system: CCRF-CEM
NCI-H460 = system: NCI-H460
TK-10 = system: TK-10
HCT-15 = system: HCT-15
LXFL 529 = system: LXFL 529
M14 = system: M14
OVCAR-5 = system: OVCAR-5
SNB-75 = system: SNB-75
SNB-78 = system: SNB-78
A498 = system: A498
HT-29 = system: HT-29
HOP-62 = system: HOP-62
IGROV-1 = system: IGROV-1
COLO 205 = system: COLO 205
KM-20L2 = system: KM-20L2
SK-MEL-2 = system: SK-MEL-2
OVCAR-3 = system: OVCAR-3
A549 = system: A549
NCI-H23 = system: NCI-H23
DLD-1 = system: DLD-1
SW-620 = system: SW-620
MOLT-4 = system: MOLT-4
SK-MEL-5 = system: SK-MEL-5
OVCAR-8 = system: OVCAR-8
ACHN = system: ACHN
HCC 2998 = system: HCC 2998
OVCAR-4 = system: OVCAR-4
SF-539 = system: SF-539
SF-268 = system: SF-268
DMS-114 = system: DMS-114
SK-OV-3 = system: SK-OV-3
U-251 = system: U-251

Compound: COc1ccc(-c2cc(=O)c3c(OC)cccc3o2)c(OC)c1OC
- GI50 (RXF 393): 39 µM (inactive)
- GI50 (786-0): > 100 µM (inactive)
- GI50 (KM12): > 100 µM (inactive)
- GI50 (DMS-273): > 100 µM (inactive)
- GI50 (SF-295): > 100 µM (inactive)
- GI50 (SN12C): > 100 µM (inactive)
- GI50 (SK-MEL-28): > 100 µM (inactive)
- GI50 (RPMI-8226): 80.5 µM (inactive)
- GI50 (LOX IMVI): > 100 µM (inactive)
- GI50 (NCI-H226): > 100 µM (inactive)
- GI50 (HCT-116): > 100 µM (inactive)
- GI50 (HOP-92): 39.9 µM (inactive)
- GI50 (SR): 56.1 µM (inactive)
- GI50 (HL-60): 63.1 µM (inactive)
- GI50 (K562): 68.5 µM (inactive)
- GI50 (UACC-257): > 100 µM (inactive)
- GI50 (M19-MEL): > 100 µM (inactive)
- GI50 (CAKI-1): > 100 µM (inactive)
- GI50 (Malme-3M): > 100 µM (inactive)
- GI50 (UACC-62): > 100 µM (inactive)
- GI50 (NCI-H522): > 100 µM (inactive)
- GI50 (CCRF-CEM): > 100 µM (inactive)
- GI50 (NCI-H460): > 100 µM (inactive)
- GI50 (TK-10): 82 µM (inactive)
- GI50 (HCT-15): > 100 µM
- GI50 (LXFL 529): 82.2 µM (inactive)
- GI50 (M14): > 100 µM (inactive)
- GI50 (OVCAR-5): > 100 µM (inactive)
- GI50 (SNB-75): 19.8 µM (inactive)
- GI50 (SNB-78): > 100 µM (inactive)
- GI50 (A498): > 100 µM (inactive)
- GI50 (HT-29): > 100 µM (inactive)
- GI50 (HOP-62): > 100 µM (inactive)
- GI50 (IGROV-1): > 100 µM (inactive)
- GI50 (COLO 205): > 100 µM (inactive)
- GI50 (KM-20L2): > 100 µM (inactive)
- GI50 (SK-MEL-2): > 100 µM (inactive)
- GI50 (OVCAR-3): > 100 µM (inactive)
- GI50 (A549): > 100 µM (inactive)
- GI50 (NCI-H23): > 100 µM (inactive)
- GI50 (DLD-1): 95.1 µM (inactive)
- GI50 (SW-620): > 100 µM (inactive)
- GI50 (MOLT-4): 54.6 µM (inactive)
- GI50 (SK-MEL-5): 87.7 µM (inactive)
- GI50 (OVCAR-8): > 100 µM (inactive)
- GI50 (ACHN): > 100 µM (inactive)
- GI50 (HCC 2998): > 100 µM (inactive)
- GI50 (OVCAR-4): > 100 µM (inactive)
- GI50 (SF-539): > 100 µM (inactive)
- GI50 (SF-268): > 100 µM (inactive)
- GI50 (DMS-114): > 100 µM (inactive)
- GI50 (SK-OV-3): > 100 µM (inactive)
- GI50 (U-251): > 100 µM (inactive)

Reference: ChEMBL document CHEMBL1201862, “PubChem BioAssay data set” (2004)
